In patent publication US20220143152A1, “USE OF PEPTIDE DERIVED FROM H-REV107” (GJMEDI INC., priority 2019, published 2022):

What was measured:
[1] = test system: AsPC-1 (pancreatic cancer) cell-line; format: cell-based; settings: 72 h
Experimental: (§1) Cancer cell-lines used in this example were SW480 (colon cancer), AsPC-1 (pancreatic cancer), NCI-H23 (lung cancer), NCI-H460 (lung cancer) and HCT116 (colon cancer) cell-lines. Specifically, for HCT116 and NCI-H460 cell-lines, 100 μl of a culture medium containing 2×10^3 cells per well; for SW480 and NCI-H23 cell-lines, 100 μl of a culture medium containing 5×10^3 cells per well; and, for AsPC-1 cell-line, 100 μl of a culture solution containing 1×10^4 cells per well, respectively, were seeded. The seeded cells were cultured for 24 hours for adhesion to the well, and the medium was changed. […] After completion of the culture, a cell counting kit-8 (CCK-8) solution (10 μl/well) was added, and the cells were further cultured for 4 hours in a CO2 incubator maintained at 37° C.

[2] = test system: SW480 (colon cancer) cell-line; format: cell-based; settings: 72 h
Experimental: as §1

[3] = test system: HCT116 (colon cancer) cell-line; assay: Cancer inhibitory activity, CCK-8; format: cell-based; settings: HCT-116, 72 hours treatment
Experimental: as §1

[4] = test system: NCI-H23 (lung cancer) cell-line; assay: Cancer inhibitory activity, CCK-8; format: cell-based; settings: NCI-H23, 72 hours treatment
Experimental: as §1

[5] = test system: NCI-H460 (lung cancer) cell-line; assay: Cancer inhibitory activity, CCK-8; format: cell-based; settings: NCI-H460, 72 hours treatment
Experimental: as §1

[6] = biological target: mutant KRAS G12V (Homo sapiens, UniProt P01116, G12V); assay: GTP binding assay; format: biochemical; settings: in the presence of H-REV107 protein, FIG. 3a
Experimental: The prepared mixture was incubated with a binding solution (50 mM Hepes (pH 7.5), 100 mM NaCl, 2 mM MgCl2, 1 mM EDTA and 1 mM DTT). The culture was passed through Ni-NTA resin and then bound at 4° C. […] GTP (2,500 cpm/pmol) and […] To terminate binding, a washing buffer (20 mM Tris-HCl (pH 7.4), 100 mM NaCl and 2 mM MgCl2) was added. After washing, the bound protein was eluted using 200 mM imidazole. In this example, bovine serum albumin was used as a negative control. Radioactive GTP bound to the protein was quantified by a liquid scintillation counter, and the results thereof are shown in FIG. 3.

Row | GI50 [1] | GI50 [2] | GI50 [3] | GI50 [4] | GI50 [5] | radioactive GTP binding activity of the mutant KRAS G12V [6] | Molecule
1 | 417 µM | 358 µM | millimolar (mM) range | millimolar (mM) range | millimolar (mM) range |  | CC(C)C[C@H](N)C(=O)N[C@@H](Cc1ccc(O)cc1)C(=O)N[C@@H](CC(=O)O)C(=O)N[C@H](C(=O)N[C@@H](C)C(=O)NCC(=O)N[C@@H](CO)C(=O)N[C@@H](CC(=O)O)C(=O)N[C@@H](CCCCN)C(=O)N[C@@H](Cc1ccc(O)cc1)C(=O)O)C(C)C [CY101]
2 |  |  |  |  |  | somewhat reduced | H-REV107 protein: H-REV107 (HRAS-like suppressor 3), a growth inhibitory RAS target gene product (protein, UniProt P53816 1-162, looked up) Phospholipase A and …: MRAPIPEPKPGDLIEIFRPFYRHWAIYVGDGYVVHLAPPSEVAGAGAASVMSALTDKAIVKKELLYDVAGSDKYQVNNKHDDKYSPLPCSKIIQRAEELVGQEVLYKLTSENCEHFVNELRYGVARSDQVRDVIIAASVAGMGLAAMSLIGVMFSRNKRQKQ
